Reference: patent US20220323379A1, “P62 LIGAND COMPOUND AND ER-PHAGY-PROMOTING USE THEREOF” (PROTECH, INC., priority 2019, published 2022)
Values belong to the compound of their own block, whether it stands above or below them.

Assays:
p62 = target: T1, p62 (Homo sapiens, UniProt Q13501); assay: In vitro p62 oligomerization assay; assay type: biochemical; details: 2 h; for oligomerization and aggregation of p62: p62-ZZ ligands 1 mM, p62-myc/his cell lysate, FIG. 5B; for p62 oligomerization: dipeptide 50 mM, FIG. 2B
T1 construct: PCR amplification of a full-length human p62 cDNA fragment; expressed in transfected cells; unpurified lysate supernatant
Procedure: FIG. 2B illustrates the in vitro p62 oligomerization assay results in HEK293T cells cultured with Arg-Ala or Ala-Arg dipeptide (50 mM, 2 hours),
FIG. 5B illustrates the in vitro p62 oligomerization assay results in HEK293T cells incubated with the p62-ZZ ligands (1 mM, 2 h) illustrated in FIG. 5A,
HEK293 cells were transiently transfected with a plasmid encoding p62-myc/his fusion proteins (Reference Example 2), resuspended in a lysis buffer [50 mM Hepes (pH 7.4), 0.15 M KCl, 0.1% Nonidet P-40), 10% glycerol, and a mixture of protease inhibitors and phosphatase inhibitor (Abcam)] and lysed by 10 cycles of freezing and thawing, followed by centrifugation at 13,000×g for 20 min at 4° C. The protein concentration in the supernatant was determined using a BCA assay (Thermo Fisher Scientific). A total of 1 μg of protein was mixed with 50 mM of the Arg-Ala or Ala-Arg dipeptide (Anygen) or 1000 μM of p62-ZZ ligands in the presence of 100 μM bestatin (Enzo) at room temperature for 2 h. Next, a non-reducing 4×LDS sample buffer was added to each sample, heated at 95° C. for 10 min, and resolved using 4-20% gradient SDS-PAGE (Bio-Rad). Immunoblotting analysis was carried out to monitor the conversion of p62 monomers into oligomers or aggregates using an anti-myc antibody.

TRIM13 [1] = assay: In vivo oligomerization assay of TRIM13-flag (non-reducing SDS-PAGE); assay type: cell-based, human; details: HEK293T TRIM13-flag, tannic acid 30 μM 24 h, HCQ 10 μM 24 h; FIGS. 4H, 9L
Procedure: FIG. 4H illustrates the in vivo oligomerization assay results of TRIM13-flag in HEK293T cells treated with HCQ (10 μM, 24 h), tannic acid (30 μM, 24 h), or both,
FIG. 5L illustrates the In vivo oligomerization assay results of TRIM13-flag in HEK293T cells treated with MG132 (2 μM, 24 h) and with or without YOK1104 (2.5 μM, 4 h).
HEK293T cells were transfected with TRIM13-flag using Lipofectamine 2000 and treated with hydroxychloroquine (Sigma) for 24 h. To lyse the cells, the cells were subjected to a cycle of freezing/thawing and centrifuged at 13,000 g for 10 min after 30 min incubation on ice for supernatant collection. Protein concentration was measured using the Pierce BCA Protein Assay Kit (Thermo Fisher Scientific). Next, a non-reducing 4×LDS sample buffer was added to the sample lysate and followed by boiling at 100° C. for 10 min. The samples were loaded on a 3% stacking and 8% separating SDS-PAGE. Immunoblotting assays were performed using an anti-Flag antibody (Sigma) to visualize the oligomeric complexes of TRIM13.

TRIM13-p62 complex = target: T2, TRIM13-p62 complex (Homo sapiens, UniProt Q13501); assay: Co-IP with autophagy flux analysis using TRIM13 pulldown; assay type: cell-based; details: HEK293T p62-myc + TRIM13-flag, tannic acid 30 μM 24 h, FIG. 4I
T2 construct: PCR amplification of a full-length human p62 cDNA fragment; expressed in transfected cells; host or cells: HEK293T
Procedure: FIG. 4I illustrates the Co-IP assay results in HEK293T cells treated with HCQ (10 μM, 24 h), tannic acid (30 μM, 24 h), or both, and co-transfected (24 h) with p62-myc and TRIM13-flag,
FIG. 5K illustrates the Co-IP assay results in HEK293T cells co-transfected with p62-myc and TRIM13-flag (24 h) or transfected with negative control empty vector (EV) and treated with HCQ (10 μM, 24 h), YOK1104 (2.5 μM, 4 h), or both, and
To test protein interaction, co-immunoprecipitation assays were performed. For exogenous co-IP, HEK293T cells were transfected with recombinant p62, BiP, TRIM13, reticulophagy regulator 1 (FAM134B), reticulon 3 (RTN3) or ATZ (Z variant E342K) using Lipofectamine 2000. The cell pellets were scraped and pelleted by centrifugation, resuspended and lysed in an immunoprecipitation buffer (IP buffer) [50 mM Tris-HCl pH 7.5, 150 mM NaCl, 0.5% Triton X-100, 1 mM EDTA, 1 mM phenylmethylsulfonyl fluoride (PMSF; Roche) and protease inhibitor cocktail (Sigma)] on a rotor at 4° C. for 30 min. Next, the supernatant and remaining pellets were passed through a 26-gauge 1 mL syringe 15 times and centrifuged at 13,000 g at 4° C. and collected for the supernatant, to which normal mouse IgG (Santa Cruz) and Protein A/G-Plus agarose beads (Santa Cruz) were added to preclear the lysate on a rotor at 4° C. overnight. The cell lysate was then incubated with M2 FLAG-affinity Gel agarose beads (Sigma) on a rotor at 4° C. for 3 h. The gel beads were washed four times with IP buffer, resuspended in 2× Laemmli Sample Buffer, separated by SDS-PAGE and analyzed by immunoblotting with specified antibodies.

HeLa cells [2] = assay: Immunocytochemistry co-localization analysis of ER markers (calnexin, KDEL) with p62 and LC3; assay type: cell-based, human; details: tannic acid 30 μM 24 h, HCQ 10 μM 24 h
Procedure: FIG. 2C is a fluorescence image illustrating the co-localization analysis results of p62 and calnexin in HeLa cells treated with HCQ (10 μM, 24 h), tannic acid (30 μM, 24 h) or both (scale bar, 10 μm),
FIG. 2E is a fluorescence image illustrating the co-localization analysis results of KDEL and LC3 in HeLa cells treated with HCQ (10 μM, 24 h), tannic acid (30 μM, 24 h) or both (scale bar, 10 μm),
FIG. 5C is a fluorescence image illustrating the co-localization analysis results of calnexin, p62 and LC3-GFP puncta structures in HeLa cells transfected with LC3-GFP and treated with YTK1105 (2.5 μM, 9 h) (scale bar, 10 μm),
FIG. 11E illustrates the co-localization analysis results of p62, KDEL and LC3-GFP in HeLa cells transiently transfected with LC3-GFP and treated with YTK1105 (2.5 μM, 5 h) (scale bar, 10 μm), […]
To observe cellular localization of proteins, cells were cultured on cover slips coated with poly-L-lysine (Sigma). […] Confocal images were taken by a laser scanning confocal microscope 510 Meta (Zeiss) and analyzed by Zeiss LSM Image Browser (ver. 4.2.0.121).
Quantification results are expressed as the mean+/−S.D. value of three independent test results. […] The P-values were determined using ANOVA with two-tailed student's t-test (degree of freedom=n−1) or Prism 6 software (GraphPad). The statistical significance was determined as values of p<0.05 (***p<0.001; **p<0.01; *p<0.05).

HeLa cells [3] = assay: ER expansion visualization by KDEL immunostaining; assay type: cell-based, human; details: tannic acid 30 μM 24 h with YTK1105 2.5 μM 5 h or rapamycin 2 μM 18 h, FIGS. 5H, 5I
Procedure: FIG. 5H illustrates the immunostaining results of KDEL signals in HeLa cells treated with or without tannic acid (30 μM, 24 h) and with YTK1105 (2.5 μM, 5 h) or rapamycin (2 μM, 18 h) (scale bar, 10 μm),
To observe cellular localization of proteins, cells were cultured on cover slips coated with poly-L-lysine (Sigma). The cells were fixed with 4% paraformaldehyde in PBS (pH 7.4) for 15 min at room temperature and washed three times with PBS for 5 min. The cells were permeabilized with 0.5% Triton X-100 in PBS solution for 15 min and washed three times with PBS for 5 min. The cells were blocked with 2% BSA in PBS solution for 1 h at room temperature. After blocking, the cells were incubated overnight at 4° C. with a primary antibody diluted in 2% BSA/PBS solution. […] Confocal images were taken by a laser scanning confocal microscope 510 Meta (Zeiss) and analyzed by Zeiss LSM Image Browser (ver. 4.2.0.121).
Using confocal microscopy of cells analyzed by immunocytochemistry, ER expansion was visualized by considered when KDEL- or calnexin-labelled ER occupied more than 80% of cell area. Furthermore, the ER area was calculated by ImageJ (NIH, Bethesda, v1.52) and the background threshold was manually defined and set for all images. The ER area was calculated and marked from the total cell area as a fraction after borders of each cell were set.

TRIM13 [4] = assay: Immunoblotting of ER protein in tannic acid-treated cells; assay type: cell-based, human; details: HeLa, tannic acid 30 μM 24 h; FIG. 8E
Procedure: FIG. 8E illustrates the immunoblotting results of ER protein in HeLa cells treated with tannic acid (30 μM, 24 h),
Cell pellets were washed with phosphate-buffered saline (PBS) and lysed in an SDS-based sample buffer (277.8 mM Tris-HCl, pH 6.8, 4.4% LDS, 44.4% (v/v) glycerol) with beta-mercaptoethanol. Alternatively, cell pellets or protein supernatants were lysed in a 5× Laemmli sample buffer (SDS-based sample buffer). Using SDS-PAGE, whole cell lysates were separated and transferred onto polyvinylidene difluoride membranes at 100 V for 2 h at 4° C. Subsequently, the membrane was blocked with 4% skim milk in PBS solution for 30 min at room temperature and incubated overnight with primary antibodies (see Reference Example 4), followed by incubation with host-specific HRP-conjugated secondary antibodies (Jackson laboratory) (1:10000 dilution). For signal detection, a mixture of ECL solution (Thermo Fisher Scientific) was applied onto the membrane and captured using X-ray films.

oligomerization and aggregation of p62 (p62): negative controls
Compound: COC(=O)CNC[C@@H](O)COc1ccc(OCc2ccccc2)c(OCc2ccccc2)c1 [YOK-G-1104, methyl (R)-(3-(3,4-bis(benzyloxy)phenoxy)-2-hydroxypropyl)glycinate]

oligomerization and aggregation of p62 (p62): negative controls
Compound: O=Cc1ccc(OCc2ccccc2)c(OCc2ccccc2)c1 [compound 1101, 3,4-bis(benzyloxy)benzaldehyde]

turnover of TRIM13 and its complex with p62 (TRIM13-p62 complex; HCQ 10 μM 24 h): became metabolically stabilized | binding of p62 to TRIM13 (TRIM13-p62 complex): p62 normally bound to TRIM13
Compound: O=C(OC[C@H]1O[C@@H](OC(=O)c2cc(O)c(O)c(OC(=O)c3cc(O)c(O)c(O)c3)c2)[C@H](OC(=O)c2cc(O)c(O)c(OC(=O)c3cc(O)c(O)c(O)c3)c2)[C@@H](OC(=O)c2cc(O)c(O)c(OC(=O)c3cc(O)c(O)c(O)c3)c2)[C@@H]1OC(=O)c1cc(O)c(O)c(OC(=O)c2cc(O)c(O)c(O)c2)c1)c1cc(O)c(O)c(OC(=O)c2cc(O)c(O)c(O)c2)c1 [tannic acid]
oligomeric status of TRIM13 (TRIM13 [1]): TRIM13 lost its oligomeric status, leading to the uncontrolled formation of aggregates | localization of p62 puncta to calnexin signals (targeting of p62 to the ER) (HeLa cells [2]; FIGS. 2C, 2D): p62 punctate signals were delocalized from calnexin signals | autophagic targeting of KDEL+ proteins (KDEL-LC3 co-localization) (HeLa cells [2]; FIGS. 2E, 2F): abolished | ER morphology (swelling), KDEL signals (HeLa cells [3]): the ER spontaneously swelled into abnormal morphology | TRIM13 protein level (autophagic degradation) (TRIM13 [4]): stabilized

p62 oligomerization (p62): did not induce p62 oligomerization
Compound: Ala-Arg

p62 oligomerization (p62): induced p62 oligomerization
Compound: Arg-Ala
